The target of the assay is T1, YL2 (YL2-His) (Oryza sativa, UniProt Q5JJV9).
T1 construct: gene Os01g0965400; full-length cDNA (351 residues including putative 58-residue transit peptide) in pET44a, E. coli BL21, Ni-NTA
T1 sequence (Q5JJV9 1-351): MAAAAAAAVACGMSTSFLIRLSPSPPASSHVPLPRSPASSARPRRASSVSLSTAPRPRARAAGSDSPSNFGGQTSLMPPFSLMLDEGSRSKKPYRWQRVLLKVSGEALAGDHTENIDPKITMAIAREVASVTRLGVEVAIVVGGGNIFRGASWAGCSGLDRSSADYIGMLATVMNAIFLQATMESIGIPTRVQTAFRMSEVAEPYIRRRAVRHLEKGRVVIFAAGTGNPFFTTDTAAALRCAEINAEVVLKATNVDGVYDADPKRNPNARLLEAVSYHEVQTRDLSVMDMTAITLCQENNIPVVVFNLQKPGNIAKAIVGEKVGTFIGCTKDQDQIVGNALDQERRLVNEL
Put plainly: Kinase-Glo luminescence (residual ATP). The following applies: 0.2 mM UMP, 10 μM ATP, 10 mM MgCl2, 1 mM DTT, 50 mM Tris-HCl pH 7.5, 30 °C, 0.5 h. Format: biochemical.

With `Nc1ncnc2c1ncn2[C@@H]1O[C@H](COP(=O)(O)OP(=O)(O)OP(=O)(O)O)[C@@H](O)[C@H]1O` [ATP], the “Kinase-Glo luminescence (residual ATP)” value is on record as “decreased levels of RLU, reflecting the amount of residual ATP remaining after the UMP kinase reaction”.

Take `O=c1ccn([C@@H]2O[C@H](COP(=O)(O)O)[C@@H](O)[C@H]2O)c(=O)[nH]1` [UMP]: the “Kinase-Glo luminescence (residual ATP)” value is reported as “confirming that YL2 has prokaryotic UMP kinase activity in vitro”.
